# Laboratory results from US20140011870A1, “Methods of Treating Obesity Using an Effective Dose of a METAP-2 Inhibitor” (Zafgen, Inc., priority 2010, published 2014).
# What was measured:
# [1] = human, in vivo
# Protocol: (§1) Obese patients were treated in three cohorts with intravenous administration of a formulation of the compound 6-O-(4-dimethylaminoethoxy)cinnamoyl fumagillol oxalate. The compound was intravenously administered to each patient of a cohort (except for a placebo cohort) twice weekly for at least 26 days. Each of patients in the three non-placebo cohorts received either 0.1 mg/m^2 (cohort 1); 0.3 mg/m^2 (cohort 2); or 0.9 mg/m^2 (cohort 3) doses of the compound at the time of administration. The trial was conducted under the appropriate government and medical supervision.
# Table 1 summarizes body weight determination of the 9 patients in the 0.9 mg/m^2 cohort on the day of the first dose and prior to a second dose administered four days later.
# There was a significant correlation between weight loss of patients and maintained exposure of 0.02 ng/mL of the drug above the level of quantitation of the assay 24 hours after dosing, as shown in FIG. 4 (circled data point is exposure of one poor responder below the level of quantitation of assay). The PK profile at day 26 is representative of steady state (see FIG. 5).
# [2] = Body weight in obese patients, twice weekly intravenous administration (clinical trial); assay type: in vivo, human; details: for Dose at which weight loss efficacy is obtained: administered twice weekly
# Protocol: Obese patients were treated in three cohorts with intravenous administration of a formulation of the compound 6-O-(4-dimethylaminoethoxy)cinnamoyl fumagillol oxalate. The compound was intravenously administered to each patient of a cohort (except for a placebo cohort) twice weekly for at least 26 days. Each of patients in the three non-placebo cohorts received either 0.1 mg/m^2 (cohort 1); 0.3 mg/m^2 (cohort 2); or 0.9 mg/m^2 (cohort 3) doses of the compound at the time of administration. The trial was conducted under the appropriate government and medical supervision. […] Table 1 summarizes body weight determination of the 9 patients in the 0.9 mg/m^2 cohort on the day of the first dose and prior to a second dose administered four days later. […] FIG. 1 depicts the body weight change (loss) as a percent before each administration of the biweekly dose for the 0.9 mg/m^2 cohort. FIG. 2 depicts the Visual Analog Scale reports of hunger decline about 50% following successive biweekly dose administration for the 0.9 mg/m^2 cohort. […] All of the subjects of the trial described in Example 1 received doses ranging from 1.8 to 2.2 mg with each administration (given twice weekly). However, weight change of was not strictly associated with dose delivered. Instead, response was strongly associated with dose administered per unit excess body weight, as compared to weight change associated with dose delivered per unit body weight.
# [3] = Visual Analog Scale reports of hunger in obese patients; assay type: in vivo, human; details: successive biweekly dose administration, 0.9 mg/m^2 cohort
# Protocol: FIG. 2 depicts VAS reports of hunger decline by approximately 50% with body weight change (percent) with biweekly dosing of f 0.1 mg/m^2, 0.3 mg/m^2, and 0.9 mg/m^2 (approximately 1.8 to 2.1 mg) of 6-O-(4-dimethylaminoethoxy)cinnamoyl fumagillol in human patients. Values are means (n=6 per dose level) of changes in fasted Visual Analog Scale scores for each visit day vs. Day 1 for population; p values derived from 2-way ANOVA with Bonferroni post-test comparisons (*, p<0.05; **, p<0.01 vs. placebo). Obese patients were treated in three cohorts with intravenous administration of a formulation of the compound 6-O-(4-dimethylaminoethoxy)cinnamoyl fumagillol oxalate. The compound was intravenously administered to each patient of a cohort (except for a placebo cohort) twice weekly for at least 26 days. Each of patients in the three non-placebo cohorts received either 0.1 mg/m^2 (cohort 1); 0.3 mg/m^2 (cohort 2); or 0.9 mg/m^2 (cohort 3) doses of the compound at the time of administration. The trial was conducted under the appropriate government and medical supervision. […] FIG. 1 depicts the body weight change (loss) as a percent before each administration of the biweekly dose for the 0.9 mg/m^2 cohort. FIG. 2 depicts the Visual Analog Scale reports of hunger decline about 50% following successive biweekly dose administration for the 0.9 mg/m^2 cohort.
# adiponectin = experiment: Adiponectin levels in the serum of patients undergoing the trial; assay type: in vivo, human; details: with treatment
# Protocol: as §1, with “supervision. Levels of adiponectin in the serum of patients undergoing the trial were also measured.” for “supervision.”
# [4] = listed as 6-O-(4-dimethylaminoethoxy)cinnamoyl fumagillol
structure (smiles),measurement,setting,value
CO[C@@H]1[C@H](OC(=O)/C=C/c2ccc(OCCN(C)C)cc2)CC[C@]2(CO2)[C@H]1[C@@]1(C)O[C@@H]1CC=C(C)C.O=C(O)C(=O)O [6-O-(4-dimethylaminoethoxy)cinnamoyl fumagillol oxalate],Drug exposure at 24 hours post dose correlated with weight loss,[1],above 0.02 ng/mL
same,terminal half life of the drug,[1]; iv,5.4 h
same,Weight loss efficacy at low doses,"[2]; 0.1 and 0.3 mg/m^2, twice weekly",Lack of efficacy
same,body weight loss over 26 days of exposure,"[2]; 7 of the 9 subjects treated at 0.9 mg/m^2, twice weekly",3-4%
same,Dose at which weight loss efficacy is obtained,[2],≥ 0.02 mg/kg
same,Dose at which weight loss efficacy is obtained,[2]; [4],~0.02 mg/kg
same,Dose per kg of excess body weight needed to see effects,"[2]; obese patients, twice weekly",> 40 μg of drug per kg of excess body weight
same,Visual Analog Scale reports of hunger decline,[3],about 50%
same,Visual Analog Scale reports of hunger decline,[3]; [4],approximately 50%
same,Increase in adiponectin concentrations,adiponectin,over 60%
